Experiments:
[1] = target: BLK (Homo sapiens, UniProt P51451); assay: BLK mobility-shift kinase assay (Caliper LabChip 3000); format: biochemical; details: 5 concentrations, duplicate wells; listed as (S,R) enantiomer
Protocol: (§1) Each compound and concentration was tested in duplicate wells.
(§2) Data points are the averages of duplicate wells. Error bars represent the mean±replicate % activity.

[2] = target: Lyn A (Homo sapiens, UniProt P07948); assay: Lyn A mobility-shift kinase assay (Caliper LabChip 3000); format: biochemical; details: 5 concentrations, duplicate wells; listed as (S,R) enantiomer
Protocol: as §1, §2

[3] = tested on: tail flick model for nociceptive pain in mice; assay: Tail flick test for nociceptive pain; format: in vivo; details: for Mean latency time Post-treatment: 30 minutes after administration; for Mean latency time Pre-treatment: baseline a day before
Protocol: In the present study the analgesic effect of the substantially pure enantiomers E1 and E2 was evaluated using the tail flick model for nociceptive pain in mice.
The experiment was performed using male ICR strain 7 weeks old mice (25-27 g) (supplied by Harlan Israel, Ltd.)
Response to pain was assessed using the tail flick method which utilizes an Ugo Basile tail flick instrument. The animal is placed and held gently on the Ugo Basile tail flick (TF) instrument surface with the tail straight back and above a photoelectric cell that served as heat source. The heat source and timer are turned on by a foot pedal press, and automatically switch off when the animal flicks its tail off the emitter. Latency is measured and analyzed as an analgesic effect.
Description of the Study: The baseline tail flick was measured a day before the experiment started. On the day of the experiment, animal body weights were first measured followed by the IP administration of the test items (vehicle, morphine, NRD 13 S E1 and E2). 30 minutes after administration of the test items, the animals were subjected to the tail-flick testing. The tail-flick experiments were followed by blood sampling of all groups. The experiment was terminated after spinal cords and brains of all groups have been collected.
Statistics and Data Evaluation: All parameters are represented as means and standard error of the mean (SEM). Data was analyzed using a two tailed, unpaired T-test to compare each treatment group to the Vehicle treated animals. A two-tailed, paired T-test was used to compare the pre-treatment and post-treatment of each treatment group. Probability values p<0.01 and p<0.05 are considered significant.

[4] = target: Lyn B (Homo sapiens, UniProt P07948); assay: Lyn B mobility-shift kinase assay (Caliper LabChip 3000); format: biochemical; details: 5 concentrations, duplicate wells; listed as (S,R) enantiomer
Protocol: as §1, §2

[5] = Body weight in the Chung model study; format: in vivo, rats
Protocol: Body Weights: Body weight was measured at regular intervals on study days −1 for baseline values and seven days after the surgery (study day 7).

[6] = tested on: spinal nerve ligation (SNL or Chung) model for neuropathic pain in rats; assay: Spinal nerve ligation (Chung) model, Von Frey test for mechanical allodynia; format: in vivo
Protocol: The antinociceptive and analgesic activity of E1 in a spinal nerve ligation (SNL or Chung) model for neuropathic pain in rats was evaluated.
On study day 0, all animals underwent Chung surgery, which consisted of an operation where the left L5-L6 spinal nerves were isolated and cut. Fourteen days post surgery the animals were selected using pain threshold results from the Von Frey test. Only animals that indicated signs of mechanical allodynia were included in the study. After the selection process, the animals were grouped and Test Items were administered via IP. The pain response was measured using Von Frey methodology at 2, 5 and 24 hours after Test Item administration on study day 14, and at 2, 5, 24 and 48 hours on study day 21 after 7 days of Test Item administration.
Species: 50 SD young adult male rats, 225-260 g at study initiation (Harlan Laboratories, Israel. Ltd.)
Neuropathic Pain Induction: While under anesthesia using ketamine/xylazine sodium and after the area was shaved, the rat was placed in a prone position and the left paraspinal muscles were separated from the spinous process at the L4-S2 levels. The L6 vertebral transverse process was carefully removed with a small rongeur to visually identify the L5-L6 spinal nerves. The left L5-L6 spinal nerves were cut. The muscle was then closed with 4-0 silk sutures and the skin was closed by a clamp. Following surgery, the rats were returned to the cage and remained under a heating lamp until they awoke.
Inclusion/Exclusion Criteria for Pre-Selection: On post-operative day 14, animals were tested for mechanical allodynia using Von Frey methodology prior to being placed in their experimental groups. Only animals with a pain threshold of ≦26 g for the operated leg were included in the study. In order to form homogenous treatment groups and to adhere to randomization, all the operated rats were grouped according to inclusion/exclusion criteria.
The Von Frey test was performed prior to Test Items' administrations (pre-TI injection) and at 2 and 5 hours after TI administration (post-TI injection) on study days 14 and 21.
Von Frey test was performed prior to TI's administration on study day 15 (24 hours post-TI's administration on study day 14) and on study days 22 and 23 (24 and 48 hours respectively post-TI's administration on study day 21).
Pain Response Evaluation: Pain response was evaluated using Von Frey test for mechanical allodynia.
The Von Frey test for mechanical allodynia is based on applying short pulses of pressure that are not painful to a naive animal. In fact, in order to achieve paw withdrawal from a naive animal, the pressure applied is sometimes higher than 60 g. This often requires the researcher to apply enough pressure with the Von Frey filament to actually lift the paw of the naive animal. However, in disease conditions, the animals are sensitive to much lower pressure and experience pain as a result of a normally non-painful stimulus.
Mechanical Allodynia Evaluation (Von Frey Testing): Allodynic response to tactile stimulation was assessed using the Von Frey apparatus (Touch®).
The rats were placed in an enclosure and positioned on a metal mesh surface, but allowed to move freely. The rats' cabins were covered with red cellophane to diminish environmental disturbances. The test began after cessation of exploratory behavior. The set of Von Frey monofilaments provide an approximate logarithmic scale of actual force and a linear scale of perceived intensity as provided by the manufacturer of the Von Frey apparatus (Ugo Basil). The operating principle: When the tip of a fiber of given length and diameter is pressed against the skin at right angles, the force of application increases as long as the researcher continues to advance the probe until the fiber bends. After the fiber bends, the probe continues to advance, causing the fiber to bend more, but without additional force being applied to the paw. […]

[7] = 150 mg/kg IP on days 14, 15, 21 (group 2)
[8] = 150 mg/kg IP (group 2), before first dose
[9] = 150 mg/kg IP, study day 14, 2 hours
[10] = 150 mg/kg IP, study day 21, 2 hours

Sequence of Lyn A (P07948 whole entry, species assumed): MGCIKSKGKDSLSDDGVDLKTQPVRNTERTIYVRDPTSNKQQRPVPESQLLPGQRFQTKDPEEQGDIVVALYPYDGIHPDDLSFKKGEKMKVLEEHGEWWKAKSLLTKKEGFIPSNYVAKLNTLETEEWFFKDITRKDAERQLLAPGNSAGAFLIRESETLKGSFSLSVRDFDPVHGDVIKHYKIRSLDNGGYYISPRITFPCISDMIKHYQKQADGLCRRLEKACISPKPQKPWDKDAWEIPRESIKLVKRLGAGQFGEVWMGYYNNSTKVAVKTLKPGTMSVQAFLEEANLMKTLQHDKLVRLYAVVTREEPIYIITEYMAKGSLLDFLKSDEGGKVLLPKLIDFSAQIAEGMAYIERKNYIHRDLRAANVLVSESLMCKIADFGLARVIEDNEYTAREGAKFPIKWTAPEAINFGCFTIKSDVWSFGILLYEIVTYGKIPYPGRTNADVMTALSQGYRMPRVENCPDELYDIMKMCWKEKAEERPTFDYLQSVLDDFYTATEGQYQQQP
Sequence of BLK (P51451 whole entry, species assumed): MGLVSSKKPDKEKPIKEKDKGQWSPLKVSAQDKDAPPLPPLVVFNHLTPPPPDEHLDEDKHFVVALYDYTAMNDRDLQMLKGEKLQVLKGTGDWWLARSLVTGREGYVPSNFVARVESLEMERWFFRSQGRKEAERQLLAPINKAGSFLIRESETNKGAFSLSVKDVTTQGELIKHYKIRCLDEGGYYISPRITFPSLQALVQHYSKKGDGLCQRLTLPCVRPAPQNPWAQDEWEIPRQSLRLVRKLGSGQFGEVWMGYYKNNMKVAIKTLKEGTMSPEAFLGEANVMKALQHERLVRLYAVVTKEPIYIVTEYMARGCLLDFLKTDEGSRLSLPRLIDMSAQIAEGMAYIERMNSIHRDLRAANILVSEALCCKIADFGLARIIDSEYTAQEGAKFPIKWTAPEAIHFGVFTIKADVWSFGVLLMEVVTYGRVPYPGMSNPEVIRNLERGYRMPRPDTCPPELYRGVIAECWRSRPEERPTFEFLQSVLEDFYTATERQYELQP
Sequence of Lyn B (P07948 1-491 isoform P07948-2, species assumed): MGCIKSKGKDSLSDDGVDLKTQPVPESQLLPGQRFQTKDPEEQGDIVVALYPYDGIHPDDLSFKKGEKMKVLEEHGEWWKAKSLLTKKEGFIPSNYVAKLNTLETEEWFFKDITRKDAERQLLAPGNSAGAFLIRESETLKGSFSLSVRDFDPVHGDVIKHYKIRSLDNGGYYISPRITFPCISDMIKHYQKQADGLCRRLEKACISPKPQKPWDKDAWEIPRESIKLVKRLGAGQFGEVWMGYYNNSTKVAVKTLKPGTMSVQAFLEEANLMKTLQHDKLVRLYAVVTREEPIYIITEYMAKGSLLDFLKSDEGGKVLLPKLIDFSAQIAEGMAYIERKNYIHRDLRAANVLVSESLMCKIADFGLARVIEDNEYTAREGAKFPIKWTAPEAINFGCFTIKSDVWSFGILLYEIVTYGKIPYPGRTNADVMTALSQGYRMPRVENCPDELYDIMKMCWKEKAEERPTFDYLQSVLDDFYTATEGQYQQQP

SMILES: CC(O)COCC(Cc1ccc(O)cc1)NC(=O)CCc1ccccc1 [E2, (S)2-N(3-O—((R)propan 2-ol)-1-propyl-4-hydroxybenzene)-3-phenylpropylamide]
- modulation of BLK tyrosine kinase activity [1]: inhibited
- modulation of LynA tyrosine kinase activity [2]: inhibited
- difference in tail flick latency times ([3]; 10 mg/kg IP): did not cause any statistically significant difference
- increase of latency time between pretreatment and post treatment ([3]; 10 mg/kg IP): not statistically significant
- reducing pain when compared to the Vehicle ([3]; 10 mg/kg IP): not significantly active in reducing pain
- Δ of latency time post- and pre-treatment ([3]; 10 mg/kg IP (groups 4, 6)): 0.63 ± 0.87 s
- Mean latency time Post-treatment ([3]; 10 mg/kg IP (groups 4, 6)): 8.93 ± 0.93 s
- Mean latency time Pre-treatment ([3]; 10 mg/kg IP (groups 4, 6)): 8.30 ± 0.46 s
- conclusion: activity in tail flick study ([3]; dose of 10 mg/kg): not active
- pain analgesic in animal models of pain ([3]; summary statement, listed as (S,R) enantiomer): ineffective or less effective
- modulation of LynB tyrosine kinase activity [4]: inhibited

SMILES: CN1CC[C@]23c4c5ccc(O)c4O[C@H]2[C@@H](O)C=C[C@H]3[C@H]1C5 [Morphine, reference compound]
- Mean latency time Post-treatment ([3]; 5 mg/kg IP (group 2)): 15.38 ± 1.47 s
- Mean latency time Pre-treatment ([3]; 5 mg/kg IP (group 2)): 7.92 ± 0.17 s
- Mean latency time Pre-treatment ([3]; 5 mg/kg IP (group 2), listed as morphine): 7.92 ± 0.17 s

SMILES: NCC1(CC(=O)O)CCCCC1 [Gabapentin, reference compound]
- Mean group body weight Day 14 ([5]; 150 mg/kg IP (group 2), before first administration): 283.30 ± 2.53 g
- Mean group body weight Day 7 ([5]; 150 mg/kg IP (group 2), before treatment): 255.20 ± 2.83 g
- Mean group body weight Baseline ([5]; 150 mg/kg IP (group 2), study day -1, before surgery and treatment): 242.10 ± 2.44 g
- Mean group body weight Day 21 [5, 7]: 307.90 ± 3.42 g
- delta force right minus left leg, Day 14 Post-treatment 5 hours ([6]; 150 mg/kg IP (group 2)): 48.20 ± 1.85 g
- mean Von Frey force, left operated leg, Day 14 Post-treatment 5 hours ([6]; 150 mg/kg IP (group 2)): 11.80 ± 1.85 g
- delta force right minus left leg, Day 14 Pretreatment [6, 8]: 50.00 ± 0.88 g
- mean Von Frey force, left operated leg, Day 14 Pretreatment [6, 8]: 10.00 ± 0.88 g
- difference (delta) force between right healthy leg and left operated leg, Baseline ([6]; 150 mg/kg IP (group 2), before operation): 0.00 ± 0.00 g
- mean Von Frey force required for withdrawal of the left operated leg, Baseline ([6]; 150 mg/kg IP (group 2), day -1, before operation): 53.20 ± 4.53 g
- delta force right minus left leg, Day 21 Post-treatment 5 hours [6, 7]: 47.40 ± 1.85 g
- delta force right minus left leg, Day 21 Post-treatment 24 hours [6, 7]: 46.60 ± 2.29 g
- delta force right minus left leg, Day 21 Post-treatment 48 hours [6, 7]: 50.50 ± 0.69 g
- delta force right minus left leg, Day 21 Pretreatment [6, 7]: 49.80 ± 0.85 g
- mean Von Frey force, left operated leg, Day 21 Post-treatment 5 hours [6, 7]: 12.60 ± 1.85 g
- mean Von Frey force, left operated leg, Day 21 Post-treatment 24 hours [6, 7]: 13.40 ± 2.29 g
- mean Von Frey force, left operated leg, Day 21 Post-treatment 48 hours [6, 7]: 9.50 ± 0.69 g
- mean Von Frey force, left operated leg, Day 21 Pretreatment [6, 7]: 10.20 ± 0.85 g
- conclusion: analgesic activity of the positive control ([6]; 150 mg/kg IP, 2 hours after administration on study days 14 and 21): active
- conclusion: analgesic activity of the positive control ([6]; 150 mg/kg IP, 5 hours, 24 hours and 48 hours post dosing): no longer detected
- inhibition of allodynia compared to the pretreatment value of delta withdrawal force ([6]; 150 mg/kg IP, day 14, 2 hours): inhibited allodynia
- inhibition of allodynia compared to the pretreatment value of delta withdrawal force ([6]; 150 mg/kg IP, day 14, 5 hours): not effective
- pain relief activity, delta withdrawal force between the two legs vs. Vehicle ([6]; 150 mg/kg IP, day 14 and day 21, 2 hours): significant pain relief activity
- inhibition of allodynia compared to the pretreatment value of delta withdrawal force ([6]; 150 mg/kg IP, day 21, 2 hours): effectively inhibited allodynia
- inhibition of allodynia (Von Frey) compared to the Vehicle control [6, 9]: inhibited allodynia
- inhibition of allodynia (Von Frey) compared to the pretreatment value [6, 9]: inhibited allodynia
- inhibition of allodynia (Von Frey) compared to the Vehicle control ([6]; 150 mg/kg IP, study day 14, 5 hours): not effective
- inhibition of allodynia (Von Frey) compared to the pretreatment value ([6]; 150 mg/kg IP, study day 14, 24 hours): not effective
- inhibition of allodynia (Von Frey) compared to the Vehicle control [6, 10]: effectively inhibited allodynia
- inhibition of allodynia (Von Frey) compared to the pretreatment value [6, 10]: inhibited allodynia
- inhibition of allodynia (Von Frey) compared to the Vehicle control ([6]; 150 mg/kg IP, study day 21, 5 hours): not effective
- duration of analgesic effect post administration ([6]; summary statement): ≤ 5 h
